Measurements from patent publication US7635709B2, “Compositions and methods for bowel care in individuals with chronic intestinal pseudo-obstruction” (priority 2002, dated 2009).

Assays:
[1] = test system: persons with SCI; assay: Bowel evacuation score by video fluoroscopy after rectal barium-oatmeal paste in thirteen SCI subjects (Example 3); format: in vivo, human; details: IV bolus 2 mg neostigmine, with or without 0.4 mg glycopyrrolate, 13 SCI subjects
Protocol: (§1) Thirteen (13) persons with SCI (5 quadriplegics, 8 paraplegics) with a mean age of 46 years (range 25-69) and mean duration of injury of 16 years (range 1-31) were treated. None of the subjects had known heart disease and/or history of arrhythmias.
(§2) On separate days, subjects were given by IV bolus either (i) 2 mg neostigmine alone, (ii) a combination of 2 mg neostigmine and 0.4 mg glycopyrrolate, or (iii) normal saline. Subjects were blinded to the type of infusion being delivered. The effect of these infusions on bowel evacuation was assessed semi-quantitatively on a scale of 0 (no evacuation) to 4+ (complete evacuation) using video fluoroscopy after rectal instillation of a barium-oatmeal paste having a consistency similar to that of stool. Blood pressure, heart rate and other vital signs were monitored in each subject. In addition, airway resistances were determined in each subject using the forced oscillation technique (as described, for example, in Goldman, Pulm. Pharmacol. Ther., 14(5):341-350, 2001). Total airway resistance was determined using 5 Hz forced oscillations, and central airway resistance was determined using 20 Hz forced oscillations.
This response received a 0 (zero) bowel evacuation score. FIGS. 1B-1E show progressively increasing bowel evacuation responses in different subjects. The responses in FIGS. 1B-1E correspond to bowel evacuation scores of 1+, 2+, 3+, and 4+, respectively.

[2] = test system: persons with SCI; assay: Heart rate, blood pressure and side effects monitoring in thirteen SCI subjects (Example 3); format: in vivo, human; details: IV bolus 2 mg neostigmine, with or without 0.4 mg glycopyrrolate, 13 SCI subjects
Protocol: as §1, §2

[3] = test system: persons with SCI; assay: Airway resistance by forced oscillation technique in thirteen SCI subjects (Example 3); format: in vivo, human; details: IV bolus 2 mg neostigmine
Protocol: as §2

[4] = test system: patients with acute colonic pseudo-obstruction; details: Ponec et al. 1999; cited from earlier work

CN(C)C(=O)Oc1cccc([N+](C)(C)C)c1 [neostigmine]
subjects with prompt and complete evacuation [1]: 57 % of subjects | time of evacuation post infusion, mean [1]: 11 min | mean bowel evacuation score ([1]; scale 0 (no evacuation) to 4+ (complete evacuation)): about 2.29 | change in blood pressure after administration [2]: No change | other side effects (muscle twitching, sweating, vague abdominal sensations, salivation) [2]: transient and minimal | mean lowest heart rate measured ([2]; p=0.02 between groups): about 49 BMP | total airway resistance, increase over baseline ([3]; 5 Hz forced oscillations): approximately 25.5% | central airway resistance, increase over baseline ([3]; 20 Hz forced oscillations): approximately 18.4% | passage of flatus or stool with reduction in abdominal distention [4]: most patients successfully passed flatus or stool
